# Biological target: GST-RIPK1 (recombinant GST-RIPK1 kinase domain (residues 1-327)) (Homo sapiens (Human), UniProt Q13546)
# Test: RIPK1-ADP-Glo Enzymatic Assay
# Type: biochemical
# Settings: 25 nM GST-RIPK1, 300 μM ATP, 3 μM dephosphorylated-MBP, 30 min pre-incubation, 150 min reaction
# Summary of the method: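 GST-RIPK1 kinase domain (1-327, Sf21-expressed), 25 nM final, pre-incubated 30 min with compound (1% DMSO), then reacted 150 min with 300 μM ATP and 3 μM dephosphorylated MBP in HEPES pH 7.3/MgCl2 buffer. ADP measured by ADP-Glo luminescence; EC50 from 10-point 1:3 titrations (top 100000 nM), four-parameter fit.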
# GST-RIPK1 (recombinant GST-RIPK1 kinase domain (residues 1-327)), sequence (Q13546 1-327): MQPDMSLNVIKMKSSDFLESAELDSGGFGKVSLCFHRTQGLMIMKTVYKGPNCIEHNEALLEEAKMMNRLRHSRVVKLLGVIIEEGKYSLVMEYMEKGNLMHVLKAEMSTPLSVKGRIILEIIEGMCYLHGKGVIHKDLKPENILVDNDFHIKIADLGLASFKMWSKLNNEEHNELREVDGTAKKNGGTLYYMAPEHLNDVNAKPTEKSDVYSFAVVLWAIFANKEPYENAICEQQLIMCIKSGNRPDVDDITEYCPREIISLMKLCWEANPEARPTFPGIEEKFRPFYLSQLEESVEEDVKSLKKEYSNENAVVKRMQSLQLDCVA
row,Compound,EC50 [nM]
1,"Cc1cc(F)c([C@@H]2CCc3nn(C45CC(F)(C4)C5)c(=O)n32)c(F)c1 [Compound 1-74, (S)-5-(2,6-difluoro-4-methylphenyl)-2-(3-fluorobicyclo[1.1.1]pentan-1-yl)-2,5,6,7-tetrahydro-3H-pyrrolo[2,1-c][1,2,4]triazol-3-one]",20.9
2,"N#CC12CC(n3nc4n(c3=O)[C@@H](c3cc(F)cc(F)c3)CS4)(C1)C2 [Compound 1-64, (S)-3-(5-(3,5-difluorophenyl)-3-oxo-5,6-dihydrothiazolo[2,3-c][1,2,4]triazol-2(3H)-yl)bicyclo[1.1.1]pentane-1-carbonitrile]",395

# Now from value to compound:
row,EC50 [nM],Compound
1,32.9,"O=c1n(C23CC(Cl)(C2)C3)nc2n1[C@H](c1ccccc1)CC2 [Compound 1-41, (5S)-2-(3-chlorobicyclo[1.1.1]pentan-1-yl)-5-phenyl-2,5,6,7-tetrahydro-3H-pyrrolo[2,1-c][1,2,4]triazol-3-one]"
2,67.7,"N#CC12CC(n3nc4n(c3=O)[C@H](c3ccc(F)c(F)c3)CC4)(C1)C2 [Compound 1-44, (S)-3-(5-(3,4-difluorophenyl)-3-oxo-6,7-dihydro-3H-pyrrolo[2,1-c][1,2,4]triazol-2(5H)-yl)bicyclo[1.1.1]pentane-1-carbonitrile]"
3,18.5,"O=c1n(C23CC(Cl)(C2)C3)nc2n1[C@H](c1cccc(F)c1)CC2 [Compound 1-42, (S)-2-(3-chlorobicyclo[1.1.1]pentan-1-yl)-5-(3-fluorophenyl)-2,5,6,7-tetrahydro-3H-pyrrolo[2,1-c][1,2,4]triazol-3-one]"

# From patent US20240025912A1 (Merck Sharp & Dohme LLC, priority 2022, published 2024)
